Experimental findings from PubChem BioAssay (NCI) are described below.

The structures appear in SMILES notation.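 Test compounds were applied to cells in 96-well plates for 48 hours at 5 doses. The concentration for full growth arrest is given as TGI.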 A value given as a limit tells only on which side of the number the result lay.

Holding throughout (assay): growth of human tumour cells (NCI), 48 h
The subject of test [1] is U251 CNS.
Test [2] has as its system HCT-116 colon.
Test [3] deals with PC-3 prostate.
Test [4] concerns SR leukemia.
Test [5] deals with SF-295 CNS.
Test [6] relates to KM12 colon.
Test [7] deals with HCT-15 colon.
In test [8] the test system is EKVX NSCLC.
Test [9] deals with OVCAR-3 ovarian.
In test [10] the test system is CCRF-CEM leukemia.

For the compound `CC1(C)c2ccccc2C(O)C12CCC(=O)CC2` (configuration not stated), the TGI was greater than 100 µM in test [1]; 23.2 µM in [2]; greater than 100 µM in test [3]; greater than 100 µM in test [4]; greater than 100 µM in test [5]; greater than 100 µM in [6]. For the same compound, the TGI in test [7], in test [8] and in test [9] was greater than 100 µM each time.
With `COc1ccc(N2C(=O)C3CC4=CC(=O)C[C@H]4[C@H]32)cc1` (some centres not stated), the TGI in test [1], in [2], in [3], in [4], in test [5] and in test [6] was greater than 100 µM throughout. For the same compound, the TGI in test [7] and in test [9] was greater than 100 µM throughout.
`NC(N)=NCC(N)C(=O)O` (configuration not stated): the TGI in test [1], in test [2], in [3], in [4], in [5] and in [6] was greater than 100 µM each time. Further, the TGI in test [7], in [8] and in [9] was greater than 100 µM throughout.
For the compound `O=C1N[C@@H](COc2ccc(C=Nc3ccc(CCc4ccc(N=Cc5ccc(OC[C@@H]6COC(=O)N6)cc5)cc4)cc3)cc2)CO1`, the TGI in [1], in test [2], in [3], in test [4], in test [5] and in test [6] was greater than 100 µM throughout. Moreover, the TGI in test [7], in [8] and in test [9] was greater than 100 µM in each case.
In the case of `CCN(CC)CCNc1ccc2ncn3c4cc(=O)ccc4c(O)c1c23`, the TGI in test [1] was determined as 6.59 µM; in test [2], 15.5 µM; in test [4], 9.75 µM; in test [5], 10.7 µM; in test [6] it was 22.1 µM; in [7] it was 17 µM. For the same compound, the TGI in [8] worked out at 23 µM; in [10], 16.8 µM; in test [9], 6.36 µM.
For `COc1ccc(C2C(Cl)C(=O)N2NC(=O)Cc2ccccc2)cc1OC` (configuration not stated), the TGI in [1], in test [2], in test [4], in test [5], in [6] and in test [7] was greater than 100 µM each time. Moreover, the TGI in [8], in [10] and in test [9] was greater than 100 µM each time.
On to `CCOC(=O)NC(=O)c1c[nH]c(=O)[nH]c1=O`, for which the TGI in test [1], in test [2], in test [4], in test [5], in test [6] and in [7] was greater than 100 µM each time. The TGI in test [8], in test [10] and in test [9] was greater than 100 µM throughout.
Consider `COC[C@@H](Cc1ccc(OC)c(OC)c1)[C@@H](COC)Cc1ccc(OC)c(OC)c1`, for which the TGI in [1], in test [2], in [4], in test [5], in test [6] and in test [7] was greater than 100 µM throughout. The TGI in test [8], in test [10] and in test [9] was greater than 100 µM throughout.
For the compound `N#C/C(=C\c1ccccc1Br)C(=O)c1ccccc1`, the TGI in test [1] was greater than 71.4 µM; in [2], greater than 66.8 µM; in test [4], greater than 83.8 µM; in [5], greater than 87.5 µM; in test [6] it was greater than 100 µM; in test [7], greater than 47.2 µM. Also, the values for the TGI in test [8], in test [10] and in test [9] were greater than 100 µM, 38.6 µM and greater than 69.2 µM, respectively.
Consider `O=C(Oc1cccc(Cl)c1)c1cc2cc(CCl)ccc2oc1=O`, for which the TGI in [2], in test [3], in test [4], in test [5], in [6] and in [7] was greater than 100 µM throughout. Moreover, the TGI in [8] and in test [9] was greater than 100 µM in each case.
On to `O=C1C[C@H](c2ccc(O)c(O)c2)Oc2cc(O)cc(O)c21`, for which the TGI in test [1], in test [2], in [4], in [5], in [6] and in test [7] was greater than 100 µM throughout. Further, the TGI in [8], in [10] and in test [9] was greater than 100 µM each time.
